In the kinase profiling compilation of Christmann-Franck et al. (2016):

Assays:
Assay in all cases: radiometric filter-binding kinase assay, Kinase HotSpot
Details in all cases: compound 0.5 µM; ATP 10 µM
PASK (human) = PASK (human) (UniProt Q96RG2)
ERBB4 (human) = ERBB4 (human) (UniProt Q15303)
PRKCI (human) = PRKCI (human) (UniProt P41743)
BMX (human) = BMX (human) (UniProt P51813)
WNK2 (human) = WNK2 (human) (UniProt Q9Y3S1)
EPHA4 (human) = EPHA4 (human) (UniProt P54764)
ABL2 (human) = ABL2 (human) (UniProt P42684)
IKBKE (human) = IKBKE (human) (UniProt Q14164)
MAP2K1 (human) = MAP2K1 (human) (UniProt Q02750)
CSK (human) = CSK (human) (UniProt P41240)
MAPK14 (human) = MAPK14 (human) (UniProt Q16539)
Sequence of MAPK14 (human) (Q16539 whole entry, looked up): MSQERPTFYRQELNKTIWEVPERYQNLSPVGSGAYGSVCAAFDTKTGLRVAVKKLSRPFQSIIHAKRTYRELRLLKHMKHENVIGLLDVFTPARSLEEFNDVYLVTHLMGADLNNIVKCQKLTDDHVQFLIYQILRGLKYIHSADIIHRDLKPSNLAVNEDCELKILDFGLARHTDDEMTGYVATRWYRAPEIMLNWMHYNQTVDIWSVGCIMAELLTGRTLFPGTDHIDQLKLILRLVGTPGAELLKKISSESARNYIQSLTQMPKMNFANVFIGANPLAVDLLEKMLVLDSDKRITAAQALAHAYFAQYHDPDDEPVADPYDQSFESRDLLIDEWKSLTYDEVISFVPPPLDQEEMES

CDK9 CCNK (human) = CDK9 CCNK (human) (UniProt O75909+P50750)
GSK3B (human) = GSK3B (human) (UniProt P49841)
CSNK1D (human) = CSNK1D (human) (UniProt P48730)
Sequence of CSNK1D (human) (P48730 whole entry, looked up): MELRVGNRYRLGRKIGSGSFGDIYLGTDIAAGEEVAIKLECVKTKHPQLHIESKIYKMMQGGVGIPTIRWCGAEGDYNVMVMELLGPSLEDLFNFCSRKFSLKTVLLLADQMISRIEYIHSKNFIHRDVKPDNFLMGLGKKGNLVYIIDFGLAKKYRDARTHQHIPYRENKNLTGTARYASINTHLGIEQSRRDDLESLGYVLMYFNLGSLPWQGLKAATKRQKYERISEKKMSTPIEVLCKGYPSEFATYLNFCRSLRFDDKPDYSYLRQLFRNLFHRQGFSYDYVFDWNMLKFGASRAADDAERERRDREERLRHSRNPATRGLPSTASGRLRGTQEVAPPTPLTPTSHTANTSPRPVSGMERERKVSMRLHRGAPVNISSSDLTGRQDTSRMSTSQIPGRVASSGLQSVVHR

MERTK (human) = MERTK (human) (UniProt Q12866)
Sequence of MERTK (human) (Q12866 whole entry, looked up): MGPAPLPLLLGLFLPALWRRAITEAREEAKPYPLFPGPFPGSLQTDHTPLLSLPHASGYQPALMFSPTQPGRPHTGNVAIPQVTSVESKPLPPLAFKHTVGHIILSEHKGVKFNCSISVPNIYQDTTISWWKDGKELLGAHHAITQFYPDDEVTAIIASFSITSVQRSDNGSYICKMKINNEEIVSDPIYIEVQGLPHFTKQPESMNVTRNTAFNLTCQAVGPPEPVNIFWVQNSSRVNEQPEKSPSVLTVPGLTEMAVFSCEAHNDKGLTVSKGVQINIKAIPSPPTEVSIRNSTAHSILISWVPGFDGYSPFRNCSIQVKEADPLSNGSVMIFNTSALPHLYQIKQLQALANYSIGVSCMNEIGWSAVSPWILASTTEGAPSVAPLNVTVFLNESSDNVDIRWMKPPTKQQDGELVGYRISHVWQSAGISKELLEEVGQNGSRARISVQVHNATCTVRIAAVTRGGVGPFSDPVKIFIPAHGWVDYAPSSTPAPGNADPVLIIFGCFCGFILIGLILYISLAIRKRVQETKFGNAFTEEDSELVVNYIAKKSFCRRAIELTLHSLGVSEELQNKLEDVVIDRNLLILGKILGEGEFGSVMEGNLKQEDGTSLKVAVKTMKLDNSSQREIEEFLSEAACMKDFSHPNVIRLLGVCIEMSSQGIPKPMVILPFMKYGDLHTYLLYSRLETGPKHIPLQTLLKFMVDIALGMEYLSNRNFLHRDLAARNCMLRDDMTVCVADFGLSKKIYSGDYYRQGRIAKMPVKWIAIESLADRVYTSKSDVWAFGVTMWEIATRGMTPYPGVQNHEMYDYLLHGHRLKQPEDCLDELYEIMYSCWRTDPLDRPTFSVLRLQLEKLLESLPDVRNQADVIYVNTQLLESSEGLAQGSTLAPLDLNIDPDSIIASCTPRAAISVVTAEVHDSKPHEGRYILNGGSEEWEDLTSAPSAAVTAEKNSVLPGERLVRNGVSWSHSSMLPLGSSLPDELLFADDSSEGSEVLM

MARK3 (human) = MARK3 (human) (UniProt P27448)
MYLK2 (human) = MYLK2 (human) (UniProt Q9H1R3)
MAPK13 (human) = MAPK13 (human) (UniProt O15264)
BRSK1 (human) = BRSK1 (human) (UniProt Q8TDC3)
NEK2 (human) = NEK2 (human) (UniProt P51955)
Sequence of NEK2 (human) (P51955 whole entry, looked up): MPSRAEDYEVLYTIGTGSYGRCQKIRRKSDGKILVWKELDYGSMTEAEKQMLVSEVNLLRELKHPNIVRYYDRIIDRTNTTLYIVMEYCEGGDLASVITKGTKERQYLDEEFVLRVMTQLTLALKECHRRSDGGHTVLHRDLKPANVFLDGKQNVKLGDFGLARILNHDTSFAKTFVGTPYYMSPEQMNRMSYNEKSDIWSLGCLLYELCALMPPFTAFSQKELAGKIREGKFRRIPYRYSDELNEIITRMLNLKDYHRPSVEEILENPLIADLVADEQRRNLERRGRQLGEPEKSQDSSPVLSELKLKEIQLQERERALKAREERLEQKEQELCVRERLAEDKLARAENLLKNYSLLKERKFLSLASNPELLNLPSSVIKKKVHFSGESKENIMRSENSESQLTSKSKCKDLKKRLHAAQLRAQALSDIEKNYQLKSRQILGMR

IGF1R (human) = IGF1R (human) (UniProt P08069)
CLK3 (human) = CLK3 (human) (UniProt P49761)
PRKCG (human) = PRKCG (human) (UniProt P05129)
EPHB3 (human) = EPHB3 (human) (UniProt P54753)
CAMKK2 (human) = CAMKK2 (human) (UniProt Q96RR4)
MAPKAPK2 (human) = MAPKAPK2 (human) (UniProt P49137)
Sequence of MAPKAPK2 (human) (P49137 whole entry, looked up): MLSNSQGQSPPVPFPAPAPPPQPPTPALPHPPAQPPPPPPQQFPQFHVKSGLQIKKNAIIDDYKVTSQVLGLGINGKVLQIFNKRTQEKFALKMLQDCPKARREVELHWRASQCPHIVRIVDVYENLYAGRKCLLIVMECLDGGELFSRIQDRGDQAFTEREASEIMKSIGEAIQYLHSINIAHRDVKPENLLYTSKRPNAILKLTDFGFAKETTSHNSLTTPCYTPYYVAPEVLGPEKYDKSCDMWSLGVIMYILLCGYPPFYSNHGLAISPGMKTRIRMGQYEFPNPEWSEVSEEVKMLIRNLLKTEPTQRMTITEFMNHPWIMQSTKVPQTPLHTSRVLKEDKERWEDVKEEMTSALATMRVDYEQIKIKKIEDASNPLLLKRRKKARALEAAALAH

STK17A (human) = STK17A (human) (UniProt Q9UEE5)
SGK3 (human) = SGK3 (human) (UniProt Q96BR1)
FGFR4 (human) = FGFR4 (human) (UniProt P22455)
EPHA8 (human) = EPHA8 (human) (UniProt P29322)
WNK3 (human) = WNK3 (human) (UniProt Q9BYP7)
MATK (human) = MATK (human) (UniProt P42679)
MAP2K2 (human) = MAP2K2 (human) (UniProt P36507)
AURKC (human) = AURKC (human) (UniProt Q9UQB9)
MARK4 (human) = MARK4 (human) (UniProt Q96L34)
PKN1 (human) = PKN1 (human) (UniProt Q16512)
IRAK1 (human) = IRAK1 (human) (UniProt P51617)
CDK5 CDK5R1 p25 (human) = CDK5 CDK5R1 p25 (human) (UniProt Q00535+Q15078)
HIPK1 (human) = HIPK1 (human) (UniProt Q86Z02)
Sequence of HIPK1 (human) (Q86Z02 whole entry, looked up): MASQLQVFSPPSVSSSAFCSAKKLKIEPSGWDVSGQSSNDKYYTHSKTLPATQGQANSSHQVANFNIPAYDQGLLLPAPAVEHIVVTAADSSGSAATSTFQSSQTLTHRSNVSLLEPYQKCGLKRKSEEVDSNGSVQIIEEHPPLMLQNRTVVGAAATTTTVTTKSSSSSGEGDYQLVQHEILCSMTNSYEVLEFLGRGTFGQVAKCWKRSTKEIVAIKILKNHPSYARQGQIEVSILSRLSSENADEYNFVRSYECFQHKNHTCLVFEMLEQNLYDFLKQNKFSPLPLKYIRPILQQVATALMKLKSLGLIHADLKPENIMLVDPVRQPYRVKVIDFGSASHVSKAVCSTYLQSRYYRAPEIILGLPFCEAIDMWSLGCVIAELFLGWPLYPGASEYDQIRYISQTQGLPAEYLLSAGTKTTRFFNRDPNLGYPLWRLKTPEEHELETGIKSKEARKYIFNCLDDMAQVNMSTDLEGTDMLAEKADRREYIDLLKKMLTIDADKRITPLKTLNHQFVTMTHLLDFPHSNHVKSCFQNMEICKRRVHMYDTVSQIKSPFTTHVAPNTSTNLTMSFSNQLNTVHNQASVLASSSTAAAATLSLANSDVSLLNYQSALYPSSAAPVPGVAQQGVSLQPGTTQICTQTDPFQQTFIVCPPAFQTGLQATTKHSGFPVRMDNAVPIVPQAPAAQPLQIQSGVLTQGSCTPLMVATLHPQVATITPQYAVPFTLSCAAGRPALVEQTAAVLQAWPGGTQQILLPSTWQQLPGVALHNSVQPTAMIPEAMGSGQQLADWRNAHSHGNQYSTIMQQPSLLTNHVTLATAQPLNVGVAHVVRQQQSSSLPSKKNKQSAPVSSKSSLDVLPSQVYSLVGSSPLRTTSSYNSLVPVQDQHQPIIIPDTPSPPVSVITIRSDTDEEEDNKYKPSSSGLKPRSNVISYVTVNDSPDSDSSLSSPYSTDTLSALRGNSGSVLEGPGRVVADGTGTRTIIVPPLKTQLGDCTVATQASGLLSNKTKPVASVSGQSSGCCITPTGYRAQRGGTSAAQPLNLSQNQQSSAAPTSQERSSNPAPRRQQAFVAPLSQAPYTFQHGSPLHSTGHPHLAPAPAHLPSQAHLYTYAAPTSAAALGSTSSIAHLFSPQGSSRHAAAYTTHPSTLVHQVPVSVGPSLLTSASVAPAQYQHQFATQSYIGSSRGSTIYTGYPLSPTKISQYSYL

DYRK1A (human) = DYRK1A (human) (UniProt Q13627)
DMPK (human) = DMPK (human) (UniProt Q09013)
Sequence of DMPK (human) (Q09013 whole entry, looked up): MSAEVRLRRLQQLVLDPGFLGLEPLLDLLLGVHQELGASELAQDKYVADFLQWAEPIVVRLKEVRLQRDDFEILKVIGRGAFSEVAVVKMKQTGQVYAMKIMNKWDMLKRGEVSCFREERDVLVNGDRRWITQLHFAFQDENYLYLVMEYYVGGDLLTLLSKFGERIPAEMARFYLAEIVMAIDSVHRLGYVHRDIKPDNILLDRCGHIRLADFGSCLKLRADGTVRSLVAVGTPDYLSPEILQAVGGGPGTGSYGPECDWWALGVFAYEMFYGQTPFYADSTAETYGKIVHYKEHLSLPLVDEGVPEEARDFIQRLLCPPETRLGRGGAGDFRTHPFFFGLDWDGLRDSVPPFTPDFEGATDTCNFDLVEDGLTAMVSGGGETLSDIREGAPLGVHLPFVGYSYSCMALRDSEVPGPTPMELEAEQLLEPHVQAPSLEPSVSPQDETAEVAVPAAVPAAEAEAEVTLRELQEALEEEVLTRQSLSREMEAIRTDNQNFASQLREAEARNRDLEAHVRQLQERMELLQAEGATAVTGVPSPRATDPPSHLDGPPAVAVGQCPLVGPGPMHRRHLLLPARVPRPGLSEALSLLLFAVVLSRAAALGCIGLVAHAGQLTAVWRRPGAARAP

PDPK1 (human) = PDPK1 (human) (UniProt O15530)
Sequence of PDPK1 (human) (O15530 whole entry, looked up): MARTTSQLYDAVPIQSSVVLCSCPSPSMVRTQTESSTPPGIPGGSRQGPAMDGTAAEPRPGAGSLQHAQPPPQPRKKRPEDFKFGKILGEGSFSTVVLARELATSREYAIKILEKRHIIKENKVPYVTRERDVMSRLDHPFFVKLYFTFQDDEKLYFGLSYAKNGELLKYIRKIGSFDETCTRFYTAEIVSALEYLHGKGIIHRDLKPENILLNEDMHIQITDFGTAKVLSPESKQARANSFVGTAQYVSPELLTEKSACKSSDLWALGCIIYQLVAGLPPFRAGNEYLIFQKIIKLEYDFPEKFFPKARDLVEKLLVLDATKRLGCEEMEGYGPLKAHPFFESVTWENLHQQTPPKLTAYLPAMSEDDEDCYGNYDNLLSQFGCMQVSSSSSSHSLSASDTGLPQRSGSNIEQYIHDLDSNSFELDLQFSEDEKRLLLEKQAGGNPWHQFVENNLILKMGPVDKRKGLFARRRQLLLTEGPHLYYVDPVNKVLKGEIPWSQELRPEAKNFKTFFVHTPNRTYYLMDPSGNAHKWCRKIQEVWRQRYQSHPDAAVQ

CC(C)[C@H](CO)Nc1nc(Nc2cccc(Cl)c2)c2ncn(C(C)C)c2n1
residual activity (PASK (human)): 93.1%
residual activity (ERBB4 (human)): 78.4%
residual activity (PRKCI (human)): 96.6%
residual activity (BMX (human)): 84.3%
residual activity (WNK2 (human)): 92.4%
residual activity (EPHA4 (human)): 102%
residual activity (ABL2 (human)): 32.2%
residual activity (IKBKE (human)): 99.2%
residual activity (MAP2K1 (human)): 96%
residual activity (CSK (human)): 98.1%
residual activity (MAPK14 (human)): 99.4%
residual activity (CDK9 CCNK (human)): 63.6%
residual activity (GSK3B (human)): 103%
residual activity (CSNK1D (human)): 92.2%
residual activity (MERTK (human)): 84.7%
residual activity (MARK3 (human)): 96.6%
residual activity (MYLK2 (human)): 97.1%
residual activity (MAPK13 (human)): 122%
residual activity (BRSK1 (human)): 100%
residual activity (NEK2 (human)): 102%
residual activity (IGF1R (human)): 100%
residual activity (CLK3 (human)): 89.7%
residual activity (PRKCG (human)): 98.2%
residual activity (EPHB3 (human)): 102%
residual activity (CAMKK2 (human)): 70.9%
residual activity (MAPKAPK2 (human)): 102%
residual activity (STK17A (human)): 95%
residual activity (SGK3 (human)): 97.6%
residual activity (FGFR4 (human)): 79%
residual activity (EPHA8 (human)): 102%
residual activity (WNK3 (human)): 89.1%
residual activity (MATK (human)): 93.1%
residual activity (MAP2K2 (human)): 104%
residual activity (AURKC (human)): 93.2%
residual activity (MARK4 (human)): 89.8%
residual activity (PKN1 (human)): 100%
residual activity (IRAK1 (human)): 109%
residual activity (CDK5 CDK5R1 p25 (human)): 3.87%
residual activity (HIPK1 (human)): 103%
residual activity (DYRK1A (human)): 65.4%
residual activity (DMPK (human)): 108%
residual activity (PDPK1 (human)): 91.6%

COc1cc2nccc(Oc3ccc(NC(=S)NC(=O)c4ccccc4C)cc3)c2cc1OC
residual activity (PASK (human)): 93.6%
residual activity (ERBB4 (human)): 114%
residual activity (PRKCI (human)): 99.9%
residual activity (BMX (human)): 30.6%
residual activity (WNK2 (human)): 94.1%
residual activity (EPHA4 (human)): 81.4%
residual activity (ABL2 (human)): 74.1%
residual activity (IKBKE (human)): 96.2%
residual activity (MAP2K1 (human)): 88.3%
residual activity (CSK (human)): 75.3%
residual activity (MAPK14 (human)): 80.2%
residual activity (CDK9 CCNK (human)): 108%
residual activity (GSK3B (human)): 97.7%
residual activity (CSNK1D (human)): 212%
residual activity (MERTK (human)): 32.3%
residual activity (MARK3 (human)): 79.2%
residual activity (MYLK2 (human)): 26.8%
residual activity (MAPK13 (human)): 101%
residual activity (BRSK1 (human)): 87%
residual activity (NEK2 (human)): 89%
residual activity (IGF1R (human)): 92.1%
residual activity (CLK3 (human)): 93.2%
residual activity (PRKCG (human)): 100%
residual activity (EPHB3 (human)): 95.7%
residual activity (CAMKK2 (human)): 75%
residual activity (MAPKAPK2 (human)): 98%
residual activity (STK17A (human)): 82.3%
residual activity (SGK3 (human)): 98.3%
residual activity (FGFR4 (human)): 92.9%
residual activity (EPHA8 (human)): 84.1%
residual activity (WNK3 (human)): 101%
residual activity (MATK (human)): 93%
residual activity (MAP2K2 (human)): 79.4%
residual activity (AURKC (human)): 30.2%
residual activity (MARK4 (human)): 73.3%
residual activity (PKN1 (human)): 99.2%
residual activity (IRAK1 (human)): 99.6%
residual activity (CDK5 CDK5R1 p25 (human)): 93.2%
residual activity (HIPK1 (human)): 100%
residual activity (DYRK1A (human)): 95.4%
residual activity (DMPK (human)): 102%
residual activity (PDPK1 (human)): 105%

O=c1cc(N2CCNCC2)oc2c(-c3ccccc3)cccc12
residual activity (PASK (human)): 93%
residual activity (ERBB4 (human)): 104%
residual activity (PRKCI (human)): 105%
residual activity (BMX (human)): 98%
residual activity (WNK2 (human)): 111%
residual activity (EPHA4 (human)): 100%
residual activity (ABL2 (human)): 99.5%
residual activity (IKBKE (human)): 88.1%
residual activity (MAP2K1 (human)): 103%
residual activity (CSK (human)): 89.7%
residual activity (MAPK14 (human)): 82.8%
residual activity (CDK9 CCNK (human)): 94.2%
residual activity (GSK3B (human)): 97%
residual activity (CSNK1D (human)): 99.5%
residual activity (MERTK (human)): 98.3%
residual activity (MARK3 (human)): 88.8%
residual activity (MYLK2 (human)): 97.3%
residual activity (MAPK13 (human)): 104%
residual activity (BRSK1 (human)): 95.3%
residual activity (NEK2 (human)): 86%
residual activity (IGF1R (human)): 103%
residual activity (CLK3 (human)): 109%
residual activity (PRKCG (human)): 96.1%
residual activity (EPHB3 (human)): 94.5%
residual activity (CAMKK2 (human)): 83.7%
residual activity (MAPKAPK2 (human)): 103%
residual activity (STK17A (human)): 98.4%
residual activity (SGK3 (human)): 111%
residual activity (FGFR4 (human)): 106%
residual activity (EPHA8 (human)): 98.1%
residual activity (WNK3 (human)): 93.4%
residual activity (MATK (human)): 84.5%
residual activity (MAP2K2 (human)): 94%
residual activity (AURKC (human)): 97.6%
residual activity (MARK4 (human)): 92.8%
residual activity (PKN1 (human)): 99.6%
residual activity (IRAK1 (human)): 162%
residual activity (CDK5 CDK5R1 p25 (human)): 94.5%
residual activity (HIPK1 (human)): 110%
residual activity (DYRK1A (human)): 96.8%
residual activity (DMPK (human)): 96.2%
residual activity (PDPK1 (human)): 110%
